Test results from patent US8669244B2, “Cucurbitane-triterpenoid compounds, pharmaceutical composition, use and preparation method thereof” (National Taiwan University, priority 2011, dated 2014).

How the values were obtained:
[1] = molecular target: T1, GAL4-hERα ligand binding domain (LBD) chimeric receptor (Homo sapiens, UniProt P03372); experiment: Transactivation assay for estrogen receptor, ALP reporter, compound alone (ERα); format: cell-based; conditions: for Maximum activation for ERα: concentration not given; for Activation of ERα: under tested condition (maximum tolerable 2 μM)
T1 construct: expressed in transfected cells; host or cells: CHO-K1 (Chinese hamster cells), transient co-transfection with (UAS)4-ALP reporter plasmid
T1 sequence (P03372 311-547 limits assumed): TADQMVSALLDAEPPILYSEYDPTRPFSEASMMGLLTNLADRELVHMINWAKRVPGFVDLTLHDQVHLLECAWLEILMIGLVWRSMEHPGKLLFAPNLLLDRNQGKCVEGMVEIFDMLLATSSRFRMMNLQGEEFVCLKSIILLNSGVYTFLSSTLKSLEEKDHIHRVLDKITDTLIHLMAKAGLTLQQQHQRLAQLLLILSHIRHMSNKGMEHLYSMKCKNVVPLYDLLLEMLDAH
Description: (§1) 1. Estrogen Activity Analysis: Transactivation Assay for Estrogen Receptor
(§2) Plasmid pBKCMV containing GAL4-hERα (or ERβ) ligand binding domain (LBD) chimeric receptors and plasmid containing (UAS)4-alkaline phosphatase (ALP) […] were co-transfected into Chinese hamster cells (CHO-K1). Compounds with estrogenic activity would interact with estrogen-specific ER to induce the binding of GAL4 and upstream activation sequence (UAS)4 specifically to initiate the expression of ALP gene. Therefore, the ALP activity can be used to determine whether the samples to be assayed have the estrogenic activity.
Cells in high confluence were plated onto 96-well culture plate the day before transfection. The plate was then washed to remove the serum during the day of transfection, followed by addition of two plasmid DNA, GAL4-hER[…] and (UAS)4-ALP in the ratio of 1:1 together with Lipofectamine 2000 (GIBCOBRL) transfection agent and culture medium to form DNA-liposome complex for 5 hours. The sample to be assayed was added into the medium of transfected cells and cultivated for two days.

[2] = molecular target: T2, GAL4-hERβ ligand binding domain (LBD) chimeric receptor (Homo sapiens, UniProt Q92731); experiment: Transactivation assay for estrogen receptor, ALP reporter, compound alone (ERβ); format: cell-based; conditions: for Maximum activation for ERβ: concentration not given; for Activation of ERβ: under tested condition (maximum tolerable 2 μM); for EC50: compound alone
T2 construct: expressed in transfected cells; host or cells: CHO-K1 (Chinese hamster cells), transient co-transfection with (UAS)4-ALP reporter plasmid
Description: as §1, §2
(§3) The CHO-K1 cell purchased from the Food Industry Research and Development Institute Taiwan with an accession number of CCRC 60006 were cultivated with medium containing 10% FBS and Ham's F12 nutrient mixture (GIBCOBRL). Cells in high confluence were plated onto 96-well culture plate the day before transfection. The plate was then washed to remove the serum during the day of transfection, followed by addition of two plasmid DNA, GAL4-hER[…] and (UAS)4-ALP in the ratio of 1:1 together with Lipofectamine 2000 (GIBCOBRL) transfection agent and culture medium to form DNA-liposome complex for 5 hours. The sample to be assayed was added into the medium of transfected cells and cultivated for two days. The medium was aliquoted for ALP assay using 4-Nitrophenul phosphate disodium salt hexahydrate (pNPP) as the colorimetric substrate for alkaline phosphatase, and reading the absorbance of 405 nm.

[3] = molecular target: T1, GAL4-hERα ligand binding domain (LBD) chimeric receptor; experiment: Transactivation assay, combination treatment with 1 nM E2 (ERα); format: cell-based
Description: as §2, §3

[4] = molecular target: T2, GAL4-hERβ ligand binding domain (LBD) chimeric receptor; experiment: Transactivation assay, combination treatment with 1 nM E2 (ERβ); format: cell-based
Description: as §2, §3

CHO-K1 cells = experiment: Cytotoxicity to the cells of the transactivation assay; format: cell-based, Chinese hamster

T2 sequence (Q92731 264-498 limits assumed, change not shown): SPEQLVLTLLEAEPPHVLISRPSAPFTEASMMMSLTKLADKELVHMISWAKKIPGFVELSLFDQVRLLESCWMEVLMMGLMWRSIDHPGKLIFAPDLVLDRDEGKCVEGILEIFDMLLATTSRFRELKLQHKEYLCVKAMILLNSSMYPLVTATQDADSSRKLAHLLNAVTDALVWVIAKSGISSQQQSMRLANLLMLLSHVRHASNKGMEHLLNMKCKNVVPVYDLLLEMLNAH

CC(C)=CC(O)C[C@@H](C)[C@H]1CC[C@@]2(C)[C@@H]3C=C[C@@]45OC[C@]3(CC[C@]12C)C4CC[C@H](O)C5(C)C (single isomer, unassigned) [compound 6, 5β,19-epoxycucurbita-6,24-dien-3β,23ξ-diol]
Maximum activation effect for ERα ([1]; at 22 μM, relative to 1 nM E2): 30 % of E2
Maximum activation effect for ERβ ([2]; at 22 μM, relative to 1 nM E2): 23 % of E2
ALP activity, E2-induced ERα activation remaining (E2 = 100%) ([3]; 22 μM compound + 1 nM E2): 10%
ALP activity, E2-induced ERβ activation remaining (E2 = 100%) ([4]; 22 μM compound + 1 nM E2): 24%

CC(C)=C/C=C/[C@@H](C)[C@H]1CC[C@@]2(C)[C@@H]3C=C[C@@]45OC(=O)[C@]3(CC[C@]12C)C4CC[C@H](O)C5(C)C (stereo partly drawn) [compound 1, cucurbita-6,22(E),24-trien-3β-ol-19,5β-olide]
Maximum activation for ERα ([1]; relative to 1 nM E2): 12 % of E2
Maximum activation for ERβ ([2]; relative to 1 nM E2): 10 % of E2

CC(C)=C/C=C/[C@@H](C)[C@H]1CC[C@@]2(C)[C@@H]3C=C[C@@]45OC(O)[C@]3(CC[C@]12C)C4CC[C@H](O)C5(C)C (stereo partly drawn) [compound 2, 5β,19-epoxycucurbita-6,22(E),24-trien-3β,19-diol]
Maximum activation for ERα ([1]; relative to 1 nM E2): 15 % of E2
Maximum activation for ERβ ([2]; relative to 1 nM E2): 8 % of E2

CC(C)=C/C=C/[C@@H](C)[C@H]1CC[C@@]2(C)[C@@H]3C=CC4=C(CC[C@H](O)C4(C)C)[C@]3(C=O)CC[C@]12C [compound 3, 3β-hydroxycucurbita-5(10),6,22(E),24-tetraen-19-al]
Activation of ERα [1]: no significant activation
Activation of ERβ [2]: no significant activation
ALP activity, E2-induced ERα activation remaining (E2 = 100%) ([3]; 2 μM compound + 1 nM E2): 48%
ALP activity, E2-induced ERβ activation remaining (E2 = 100%) ([4]; 2 μM compound + 1 nM E2): 73%
Cytotoxicity: maximum tolerable concentration for cells (CHO-K1 cells): 2 µM

COC(OC)[C@@]12CC[C@]3(C)[C@@H]([C@H](C)/C=C/C=C(C)C)CC[C@@]3(C)[C@@H]1C=CC1=C2CC[C@H](O)C1(C)C [compound 4, 19-dimethoxycucurbita-5(10),6,22(E),24-tetraen-3β-ol]
Activation of ERα [1]: no significant activation
Activation of ERβ [2]: no significant activation
Cytotoxicity: maximum tolerable concentration for cells (CHO-K1 cells): 2 µM

CC(C)=C/C=C/[C@@H](C)[C@H]1CC[C@@]2(C)c3ccc4c(c3CC[C@]12C)CC[C@H](O)C4(C)C [compound 5, 19-nor-cucurbita-5(10),6,8,22(E),24-pentaen-3β-ol]
Maximum activation for ERα ([1]; relative to 1 nM E2): 15 % of E2
Maximum activation for ERβ ([2]; relative to 1 nM E2): 9 % of E2
E2 induced activation of ERβ remaining ([4]; 1 μM compound + 1 nM E2, p<0.05): 83 % of E2

CC1(C)C[C@H](O)C[C@@]2(C)OC(=O)C=C12 [loliolide, Loliolide]
Maximum activation of ERα ([1]; at 102 (unit not given)): 24 % of E2
EC50 ([1]; compound alone): 14.2 µM
Maximum activation of ERβ ([2]; at 51 μM): 20 % of E2
EC50 [2]: 16.7 µM
Maximum activation of ERα with E2 ([3]; 102 μM + 1 nM E2): 146 % of E2
Maximum activation of ERβ with E2 ([4]; 51 μM + 1 nM E2): 145 % of E2

CC1=C[C@H](O)CC(C)(C)[C@H]1/C=C/C(C)=C/C=C/C(C)=C/C=C/C=C(C)/C=C/C=C(C)/C=C/C1=C(C)C[C@@H](O)CC1(C)C [lutein, Lutein]
Maximum activation of ERβ ([2]; at 35 μM): 26 % that of E2
EC50 [2]: 11.8 µM
Maximum activation of ERβ with E2 ([4]; lutein at 18 (unit not given) + 1 nM E2): 166 % that of E2
